Experimental data: patent publication US12617794B2, “GABAA positive allosteric modulator compounds, methods of making, and uses thereof” (NEUROCYCLE THERAPEUTICS, INC., priority 2019, dated 2026)
≈ marks a conversion by molar mass, not a printed value. Where a name gives a salt, the structure may show the parent alone. Read-outs that look alike come from different tables or passages of the source. Blank lines part the entries; values can stand above or below the compound they belong to.

Legend:
Format in all cases: physicochemical
[1] = Dynamic vapor sorption (DVS) of salts (38.9); conditions: for DVS absorption / moisture: between 0% to 90% RH
Method: DVS was determined using IGA Sorp (Hiden Isochema, UK). The sample was tested at a targeted RH of 0 to 90% full cycle in step mode. The analysis was performed in 10% RH increments.

[2] = Intrinsic dissolution rate in SGF (Example 16); conditions: 37° C., 100 rpm, linear scope within 2 to 120 min
Method: About 100 mg of Free Base Polymorphic Form A or Phosphate Polymorphic Form A was weighed into the intrinsic dissolution apparatus and the sample compressed for 1 minute with a compression force of ˜4 MPa to form a compacted pellet within the stainless-steel die. All loose powder was removed from the surface of the die. The intrinsic dissolution shaft was connected with the stainless-steel die and tightened so only one surface of the pellet was exposed (surface area=0.496 cm^2). The shaft in the spindle was adjusted to ensure the exposed surface of the compacted tablet was ˜3.8 cm from the bottom of the vessel when lowered. The temperature of chamber water was set at 37° C.±0.5° C., the shaft rotation at 100 rpm and the sampling time points at 2, 5, 10, 15, 30, 45, 60, 120 min. SGF was used as dissolution medium (900 mL). At each time point, solution samples were filtered, and the supernatant was analyzed by HPLC-UV.

[3] = Solubility in aqueous buffers, SGF, FaSSIF and FeSSIF (Example 15); conditions: ~20-25° C., ~24 hours; for solubility thermodynamic: 20 °C, thermodynamic from solid, read-out: Measured Conc.; for Measured Conc. (μg/mL): LOQ: 0.1 μg/mL
Method: About 2 mg of test article was added to a 1.5 mL vials which contained ˜1.0 mL of one medium listed in Table 7 and Table 8, which was then sealed. The mixtures were stirred at ˜20-25° C. for ˜24 hours. After that, the mixture was filtered by 0.45 μm filter membrane and then the supernatant was analyzed by HPLC.

[4] = One week accelerated stability testing (Example 3)
Method: The stability of Phosphate Polymorphic Form A and Free Base Polymorphic Form A were evaluated under accelerated conditions.

[5] = Solid stability of free base and salts at 60° C. and 40° C./75% RH (38.3, Example 48); conditions: for chemical stability / physical stability (crystal form by XRPD): 60° C. and 40° C./75% RH for 7 days; for Crystal form day 7: XRPD
Method: Samples of TPA023B Free Base, TPA023B chloride, TPA023B besylate, and TPA023B sulfate were mounted on stability at 60° C. and 40° C./75% RH for up to 7 days. At day-0, day-3 and day-7, the samples were dissolved in diluent to prepare solutions at 0.5 mg/mL for HPLC analysis. Solid samples were analyzed by XRPD to determine the crystal form.
Solid samples were examined using D8 ADVANCE X-ray diffractometer (Bruker). The diffractometer was equipped with LynxEye detector. In XRPD analysis, samples were scanned from 3 to 40° 2θ at a step of 0.02° 2θ. The tube voltage and current were 40 KV and 40 mA, respectively.

[6] = Reactive crystallization with 1.1 eq phosphoric acid (Example 65); conditions: stirred at RT 7 hours
Method: About 25 mg of Free Base Form H was dissolved or suspended in ˜1 mL of a selected solvent. […] The solid was isolated and characterized.
Free Base Form H was dissolved or suspended in ˜1 mL selected solvent. […] Solid was isolated and characterized. No new phosphate Form was obtained in reactive crystallization under this method.

[7] = Slurry of chloride or besylate salt in EA or heptane at 50° C. overnight; conditions: slurried in EA or heptane at 50° C. overnight
[8] = 40° C./75% RH, listed as Free base (Form A)
[9] = 60° C., listed as Free base (Form A)

Compound: CC(C)(O)c1cnn2c(-c3ccc(F)c(-c4c(F)cccc4C#N)c3)cnc2n1 [Chloride Form B, 2′,6-difluoro-5′-[3-(1-hydroxy-1-methylethyl)-imidazo[1,2-b][1,2,4]triazin-7-yl]biphenyl-2-carbonitrile]
XRPD after DVS [1]: No XRPD change after DVS. | DVS absorption / moisture [1]: DVS: 0-1.4691% absorption

Compound: CC(C)(O)c1cnn2c(-c3ccc(F)c(-c4c(F)cccc4C#N)c3)cnc2n1 [Free Base Polymorphic Form A, 2′,6-difluoro-5′-[3-(1-hydroxy-1-methylethyl)-imidazo[1,2-b][1,2,4]triazin-7-yl]biphenyl-2-carbonitrile]
intrinsic dissolution rate [2]: 5×10^−5 mg·cm^2·min^−1 | Measured Conc. ([3]; Purified water): 0.14 µg/mL | solubility thermodynamic ([3]; fasted-state simulated intestinal fluid (FaSSIF), fassif, FaSSIF): 2.11 µg/mL (≈ 5.39 µM) | solubility thermodynamic ([3]; fed-state simulated intestinal fluid (FeSSIF), fessif, FeSSIF): 9.63 µg/mL (≈ 24.6 µM) | Measured Conc. ([3]; pH 1.2 Hydrochloric Acid Buffer (50 mM)): 9.77 µg/mL | Measured Conc. (μg/mL) ([3]; pH 3.0 citrate buffer (100 mM)): <LOQ | Measured Conc. (μg/mL) ([3]; pH 4.5 citrate buffer (100 mM)): <LOQ | Measured Conc. (μg/mL) ([3]; pH 7.4 PBS (50 mM)): <LOQ | Measured Conc. (μg/mL) ([3]; pH 9.0 USP Buffer (50 mM)): <LOQ | solubility thermodynamic ([3]; simulated gastric fluid (SGF), simulated gastric fluid, SGF): 1.38 µg/mL (≈ 3.53 µM) | Assay (%) ([4]; 40° C./75% RH (open), 1 week): 102.35% | Purity (%) ([4]; 40° C./75% RH (open), 1 week): 98.64% | Assay (%) ([4]; 80° C. (open), 1 week): 101.60% | Purity (%) ([4]; 80° C. (open), 1 week): 98.62% | Purity (%) ([4]; Initial): 98.72% | Assay (%) ([4]; Initial, assay criterion 95%-105%): 105.51% | Assay (%) ([4]; Light, ~50 h): 104.28% | Purity (%) ([4]; Light, ~50 h): 98.60% | HPLC Purity (%) day 3 [5, 8]: 98.2% | HPLC Purity (%) day 7 [5, 8]: 98.2% | chemical stability [5]: chemically stable | physical stability (crystal form by XRPD) ([5]; listed as TPA023B free base): physically stable | physical stability (crystal form by XRPD) ([5]; listed as TPA-23B free base): remained unchanged | HPLC Purity (%) day 3 [5, 9]: 98.1% | HPLC Purity (%) day 7 [5, 9]: 98.3% | HPLC Purity (%) day 0 ([5]; listed as Free base (Form A)): 98.1%

Compound: CC(C)(O)c1cnn2c(-c3ccc(F)c(-c4c(F)cccc4C#N)c3)cnc2n1 [Free Base Polymorphic Form H, 2′,6-difluoro-5′-[3-(1-hydroxy-1-methylethyl)-imidazo[1,2-b][1,2,4]triazin-7-yl]biphenyl-2-carbonitrile]
Result (solid form obtained) ([6]; solvent 1,4-dioxane): Phosphate Form A | Result (solid form obtained) ([6]; solvent ACN): Phosphate Form A | Result (solid form obtained) ([6]; solvent Acetone): Phosphate Form A | Result (solid form obtained) ([6]; solvent BAC): Phosphate Form A | Result (solid form obtained) ([6]; solvent Cyclohexanone): Phosphate Form A | Result (solid form obtained) ([6]; solvent DCM): Phosphate Form A | Result (solid form obtained) ([6]; solvent DEE): Phosphate Form A | Result (solid form obtained) ([6]; solvent EA): Phosphate Form A | Result (solid form obtained) ([6]; solvent IPAC): Phosphate Form A | Result (solid form obtained) ([6]; solvent MEK): Phosphate Form A | Result (solid form obtained) ([6]; solvent MTBE): Phosphate Form A | Result (solid form obtained) ([6]; solvent N-pentane): Phosphate Form A | Result (solid form obtained) ([6]; solvent PPG 2000): Phosphate Form A | Result (solid form obtained) ([6]; solvent Trichloromethane): Phosphate Form A | Result (solid form obtained) ([6]; solvent polysorbate 80): Phosphate Form A

Now from value to compound:

XRPD after DVS [1]: No XRPD change after | DVS absorption / moisture [1]: DVS: 0-1.047% moisture | HPLC Purity (%) day 3 ([5]; 40° C./75% RH): 98.8% | HPLC Purity (%) day 7 ([5]; 40° C./75% RH): 98.8% | Crystal form day 7 ([5]; 40° C./75% RH): three extra peaks | Crystal form day 7 ([5]; 40° C./75% RH, listed as TPA-23B besylate): three extra peaks | chemical stability [5]: chemically stable | HPLC Purity (%) day 3 ([5]; 60° C.): 98.8% | HPLC Purity (%) day 7 ([5]; 60° C.): 98.8% | HPLC Purity (%) day 0 [5]: 98.8% | crystal form after slurry [7]: remained unchanged
Compound: CC(C)(O)c1cnn2c(-c3ccc(F)c(-c4c(F)cccc4C#N)c3)cnc2n1 [TPA023B Besylate (Form A), 2′,6-difluoro-5′-[3-(1-hydroxy-1-methylethyl)-imidazo[1,2-b][1,2,4]triazin-7-yl]biphenyl-2-carbonitrile]

XRPD after DVS [1]: No XRPD change after | hygroscopicity [1]: light hygroscopicity | DVS absorption / moisture [1]: DVS: 0-1.206% moisture | HPLC Purity (%) day 3 ([5]; 40° C./75% RH): 98.8% | HPLC Purity (%) day 7 ([5]; 40° C./75% RH): 98.8% | chemical stability [5]: chemically stable | physical stability (crystal form by XRPD) [5]: physically stable | physical stability (crystal form by XRPD) ([5]; listed as TPA-23B sulfate): remained unchanged | HPLC Purity (%) day 3 ([5]; 60° C.): 98.8% | HPLC Purity (%) day 7 ([5]; 60° C.): 98.8% | HPLC Purity (%) day 0 [5]: 98.8%
Compound: CC(C)(O)c1cnn2c(-c3ccc(F)c(-c4c(F)cccc4C#N)c3)cnc2n1 [TPA023B Sulfate (Form A), 2′,6-difluoro-5′-[3-(1-hydroxy-1-methylethyl)-imidazo[1,2-b][1,2,4]triazin-7-yl]biphenyl-2-carbonitrile]

HPLC Purity (%) day 3 ([5]; 40° C./75% RH): 98.8% | HPLC Purity (%) day 7 ([5]; 40° C./75% RH): 98.7% | chemical stability [5]: chemically stable | physical stability (crystal form by XRPD) [5]: physically stable | physical stability (crystal form by XRPD) ([5]; listed as TPA-23B chloride): remained unchanged | HPLC Purity (%) day 3 ([5]; 60° C.): 98.4% | HPLC Purity (%) day 7 ([5]; 60° C.): 98.4% | HPLC Purity (%) day 0 [5]: 97.6% | crystal form after slurry [7]: remained unchanged
Compound: CC(C)(O)c1cnn2c(-c3ccc(F)c(-c4c(F)cccc4C#N)c3)cnc2n1 [TPA023B chloride (Form C), 2′,6-difluoro-5′-[3-(1-hydroxy-1-methylethyl)-imidazo[1,2-b][1,2,4]triazin-7-yl]biphenyl-2-carbonitrile]
